Here are results for twelve compounds from ChEMBL document CHEMBL1201862, “PubChem BioAssay data set” (2004).

Test systems include SF-295; SK-MEL-28; KM-20L2; EKVX; UO-31; SK-MEL-5; A549; SK-OV-3; KM12; NCI-H226; TK-10; HCT-15; Malme-3M; HOP-62; HCC 2998; SN12C; SNB-19; CAKI-1.
Common to all, as to test: growth of human tumour cells (NCI), 48 h

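A five-concentration, 48-hour dose response in 96-well plates underlies each endpoint, interpolated linearly between surrounding concentrations. The concentration for 50% growth inhibition is given as GI50.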 Activity calls are given as the source filed them. No stated cut-off is given here; in the data, active = GI50 up to about 1.1 µM and inactive = higher.

For `COC(=O)/C(=N\N)C(C(=O)C(=O)Nc1nnc(S)[nH]1)c1nc2ccc([N+](=O)[O-])cc2nc1O` (stereo unspecified), the GI50 in the assay on SF-295, in the assay with SK-MEL-28, in the assay on KM-20L2, in the assay on EKVX, in the assay with UO-31 and in the assay on SK-MEL-5 was > 100 µM (inactive) in each case. Besides, the GI50 was > 100 µM (inactive) in the assay on A549; > 100 µM (inactive) with SK-OV-3; > 100 µM (inactive) in the assay on KM12; > 100 µM (inactive) in the assay on NCI-H226; > 100 µM (inactive) in the assay on TK-10; more than 100 µM with HCT-15. The GI50 in the assay with Malme-3M, with HOP-62, with HCC 2998, with SN12C, in the assay on SNB-19 and in the assay on CAKI-1 was > 100 µM (inactive) throughout.
Take `O=C1N=C2Sc3ccc4ccccc4c3N2C1=O`: the GI50 was 18.6 µM (inactive) in the assay with SF-295; 27 µM (inactive) in the assay on SK-MEL-28; 25.4 µM (inactive) in the assay with KM-20L2; 16.1 µM (inactive) in the assay on EKVX; 16 µM (inactive) in the assay with UO-31; 22.4 µM (inactive) with SK-MEL-5. The GI50 in the assay on A549 is 19.6 µM (inactive); in the assay with SK-OV-3, 15.5 µM (inactive); in the assay with KM12, 32.7 µM (inactive); with NCI-H226, 22.1 µM (inactive); with TK-10, 34.4 µM (inactive); with HCT-15, 24.2 µM. Further, the GI50 in the assay with Malme-3M was 19.1 µM (inactive); in the assay on HOP-62 it was 19.2 µM (inactive); in the assay on HCC 2998 it was 27 µM (inactive); in the assay on SN12C it was 20.3 µM (inactive); with SNB-19, 20.4 µM (inactive); in the assay with CAKI-1, 24.1 µM (inactive).
As for `COc1ccccc1OCC(COC(=O)Nc1ccc(C)cc1)OC(=O)Nc1ccc(C)cc1` (stereo unspecified), the GI50 was 21.9 µM (inactive) in the assay on SF-295; 23.7 µM (inactive) with SK-MEL-28; 23.1 µM (inactive) with KM-20L2; 25 µM (inactive) with EKVX; 17.2 µM (inactive) in the assay with UO-31; 20.7 µM (inactive) in the assay on SK-MEL-5. Besides, the GI50 was 57.1 µM (inactive) in the assay with A549; 24.7 µM (inactive) in the assay with SK-OV-3; 20.6 µM (inactive) in the assay with KM12; 24.7 µM (inactive) with NCI-H226; 18.4 µM (inactive) with TK-10; 15.8 µM in the assay with HCT-15. The GI50 is 17.4 µM (inactive) with Malme-3M; 38.5 µM (inactive) with HOP-62; 20.6 µM (inactive) with HCC 2998; 17.9 µM (inactive) in the assay on SN12C; 18.7 µM (inactive) in the assay on SNB-19; 13.1 µM (inactive) with CAKI-1.
`CC1(C(=O)O)CCC[C@@]2(C)C1CC[C@@]1(C)c3cocc3CCC21` (stereo partly specified): the GI50 in the assay on SF-295, in the assay with SK-MEL-28, in the assay with KM-20L2, in the assay on EKVX, with UO-31 and in the assay with SK-MEL-5 was > 100 µM (inactive) in each case. Further, the GI50 in the assay on A549 was 70.8 µM (inactive); with SK-OV-3, > 100 µM (inactive); in the assay on KM12, > 100 µM (inactive); in the assay on NCI-H226, > 100 µM (inactive); in the assay with TK-10 it was > 100 µM (inactive); in the assay on HCT-15, more than 100 µM. Besides, the GI50 in the assay with Malme-3M, in the assay with HOP-62, with HCC 2998, in the assay with SN12C, with SNB-19 and with CAKI-1 was > 100 µM (inactive) each time.
Take `COc1ccc2oc(-c3ccc(OC)c(OC)c3OC)cc(=O)c2c1`: the GI50 was 51.6 µM (inactive) in the assay with SF-295; 62.2 µM (inactive) in the assay on SK-MEL-28; 24 µM (inactive) in the assay with KM-20L2; 33.1 µM (inactive) with EKVX; 36.6 µM (inactive) in the assay with A549; > 100 µM (inactive) in the assay on SK-OV-3. The GI50 was 10.5 µM (inactive) with NCI-H226; 36.3 µM (inactive) in the assay with TK-10; 40.7 µM (inactive) with Malme-3M; 70.3 µM (inactive) with HOP-62; 52.7 µM (inactive) in the assay on HCC 2998; 53.3 µM (inactive) in the assay with SN12C. Also, the figures for the GI50 with SNB-19 and in the assay on CAKI-1 were 18.9 µM (inactive) and 53 µM (inactive), respectively.
In the case of `CC1/C=C/[C@@]2(C)CCC(C(C)(C)O)C2C(O)C[C@](C)(O)/C=C/C1` (stereo partly specified), the GI50 with SF-295, with SK-MEL-28, in the assay with KM-20L2, in the assay with EKVX, with UO-31 and in the assay on SK-MEL-5 was > 100 µM (inactive) in each case. Further, the GI50 is > 100 µM (inactive) in the assay with A549; > 100 µM (inactive) in the assay with SK-OV-3; > 100 µM (inactive) in the assay on KM12; 7.31 µM (inactive) in the assay on NCI-H226; > 100 µM (inactive) in the assay with TK-10; more than 100 µM with HCT-15. The GI50 in the assay on Malme-3M, in the assay with HOP-62, in the assay on HCC 2998, in the assay with SN12C, with SNB-19 and in the assay on CAKI-1 was > 100 µM (inactive) in each case.
Regarding `N=C1SCCS1`, the GI50 in the assay on SF-295, in the assay with SK-MEL-28, in the assay with KM-20L2, with EKVX, with UO-31 and in the assay on SK-MEL-5 was > 100 µM (inactive) each time. In addition, the GI50 in the assay on A549 was > 100 µM (inactive); in the assay on SK-OV-3, > 100 µM (inactive); with KM12, > 100 µM (inactive); in the assay on NCI-H226 it was > 100 µM (inactive); in the assay with TK-10, > 100 µM (inactive); with HCT-15 it was more than 100 µM. In addition, the GI50 in the assay with Malme-3M, in the assay on HOP-62, in the assay with HCC 2998, in the assay with SN12C, in the assay with SNB-19 and with CAKI-1 was > 100 µM (inactive) throughout.
Consider `CC1(C)COC(C23C4C5C2C2C3C4C52I)=N1` (stereo unspecified), for which the GI50 with SF-295, in the assay on SK-MEL-28, in the assay on KM-20L2, in the assay with EKVX, in the assay with UO-31 and in the assay with SK-MEL-5 was > 100 µM (inactive) each time. Further, the GI50 was > 100 µM (inactive) in the assay on A549; > 100 µM (inactive) in the assay on SK-OV-3; > 100 µM (inactive) in the assay on NCI-H226; > 100 µM (inactive) in the assay on TK-10; more than 100 µM in the assay with HCT-15; > 100 µM (inactive) in the assay on Malme-3M. Further, the GI50 in the assay on HOP-62 was > 100 µM (inactive); in the assay on HCC 2998, > 100 µM (inactive); with SN12C, > 100 µM (inactive); in the assay on SNB-19, > 100 µM (inactive); with CAKI-1, 50.4 µM (inactive).
As to `CC1=CCN(c2ccccn2)OC1c1ccccc1` (stereo unspecified), the GI50 in the assay on SF-295 was > 100 µM (inactive); in the assay with SK-MEL-28, > 100 µM (inactive); in the assay with KM-20L2, > 100 µM (inactive); in the assay on EKVX it was > 100 µM (inactive); with UO-31, 59.8 µM (inactive); in the assay with A549, > 100 µM (inactive). Further, the GI50 in the assay with SK-OV-3 was > 100 µM (inactive); with KM12, > 100 µM (inactive); with NCI-H226, > 100 µM (inactive); in the assay with HCT-15 it was more than 100 µM; in the assay on Malme-3M it was > 100 µM (inactive); in the assay with HOP-62, > 100 µM (inactive). For the same compound, the GI50 in the assay on HCC 2998, with SN12C, with SNB-19 and with CAKI-1 was > 100 µM (inactive) each time.
`Nc1nc[n+](Cc2ccccc2)c2ncn(Cc3ccccc3)c12`: the GI50 in the assay on SF-295 is 63.8 µM (inactive); in the assay with SK-MEL-28, > 100 µM (inactive); with KM-20L2 it was 55.2 µM (inactive); in the assay with EKVX, > 100 µM (inactive); with UO-31, 39.3 µM (inactive); in the assay on SK-MEL-5 it was 97.5 µM (inactive). Also, the GI50 was > 100 µM (inactive) with A549; > 100 µM (inactive) in the assay on SK-OV-3; 68.9 µM (inactive) with KM12; > 100 µM (inactive) in the assay with NCI-H226; 28.4 µM (inactive) with TK-10; more than 100 µM with HCT-15. For the same compound, the GI50 is 84.3 µM (inactive) in the assay with Malme-3M; 32.6 µM (inactive) in the assay with HOP-62; 15.5 µM (inactive) in the assay with HCC 2998; > 100 µM (inactive) with SN12C; > 100 µM (inactive) in the assay on SNB-19; 54.3 µM (inactive) in the assay with CAKI-1.
On to `COc1cc2c(c(OC)c1OC)-c1ccc(SC)c(=O)cc1[C@@H](NCc1cccc([N+](=O)[O-])c1)CC2`, for which the GI50 with SF-295 is < 0.01 µM (active); in the assay with KM-20L2, < 0.01 µM (active); in the assay on EKVX it was < 0.01 µM (active); in the assay on UO-31, 0.0366 µM (active); with SK-MEL-5, < 0.01 µM (active); in the assay on A549, < 0.01 µM (active). Moreover, the GI50 with SK-OV-3, in the assay with KM12, in the assay on NCI-H226, with TK-10, in the assay with Malme-3M and in the assay with HCC 2998 was < 0.01 µM (active) in each case. Besides, the GI50 with SN12C, with SNB-19 and with CAKI-1 was < 0.01 µM (active) throughout.
Regarding `O=C1/C(=C\c2ccccc2)c2ccccc2N1/N=C\c1ccccc1`, the GI50 is > 100 µM (inactive) in the assay with SF-295; > 100 µM (inactive) in the assay with SK-MEL-28; > 100 µM (inactive) in the assay on KM-20L2; 23.2 µM (inactive) with EKVX; > 100 µM (inactive) in the assay on UO-31; 48.4 µM (inactive) in the assay with SK-MEL-5. Further, the GI50 in the assay on A549 was 76.2 µM (inactive); in the assay with SK-OV-3 it was > 100 µM (inactive); in the assay on KM12, 49.1 µM (inactive); with NCI-H226, > 100 µM (inactive); with TK-10, > 100 µM (inactive); in the assay on HCT-15, 43.9 µM. The GI50 in the assay on Malme-3M is > 100 µM (inactive); in the assay on HOP-62, > 100 µM (inactive); in the assay on HCC 2998, 50.4 µM (inactive); with SN12C, > 100 µM (inactive); with SNB-19, > 100 µM (inactive); in the assay with CAKI-1 it was > 100 µM (inactive).
